Results reported in ChEMBL document CHEMBL1201862, “PubChem BioAssay data set” (2004).
Active and inactive are the calls of the source.

How the values were obtained:
[1] = biological target: FAD-linked sulfhydryl oxidase ALR (Homo sapiens, UniProt P55789); assay: ALR-catalysed DTT oxidation blockers – biochemical, H2O2 detection, luminescence, cherry-pick, dose response (AID 493248)
BJ [2] = assay: BJ-TERT-LT-ST fibroblast viability loss – cell-based, RAS-independent, luminescence, dose response (AID 1935); format: functional; conditions: Homo sapiens;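 also: BJ fibroblasts immortalized with TERT plus LT and ST oncogenes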
Streptokinase A = biological target: T1, Streptokinase A (Streptococcus pyogenes serotype M1, UniProt P10520); assay: viability-normalized secreted streptokinase activity reduction – plasminogen activation absorbance, OD405, dose response (AID 1914); format: functional, Streptococcus pyogenes M1 GAS;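 also: secreted streptokinase activity via plasminogen activation per viability signal from cell pellet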
T1 sequence (P10520 whole entry): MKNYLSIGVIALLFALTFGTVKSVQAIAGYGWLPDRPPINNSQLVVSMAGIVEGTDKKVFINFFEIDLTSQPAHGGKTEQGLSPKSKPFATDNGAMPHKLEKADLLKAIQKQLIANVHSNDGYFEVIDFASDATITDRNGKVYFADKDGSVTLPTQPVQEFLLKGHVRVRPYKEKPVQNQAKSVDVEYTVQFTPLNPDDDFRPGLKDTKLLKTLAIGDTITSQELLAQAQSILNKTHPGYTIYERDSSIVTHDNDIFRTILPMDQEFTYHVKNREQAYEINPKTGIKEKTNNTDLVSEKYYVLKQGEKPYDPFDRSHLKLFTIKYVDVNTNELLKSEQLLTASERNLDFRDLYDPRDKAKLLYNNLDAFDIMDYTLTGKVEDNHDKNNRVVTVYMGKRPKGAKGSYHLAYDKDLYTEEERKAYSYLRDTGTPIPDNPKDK

[3] = DRD fibroblast viability loss – cell-based, non-viral oncogenic, luminescence, dose response (AID 1934); format: functional; conditions: Homo sapiens
[4] = NIH3T3 cell viability loss – ATP luminescence, mouse fibroblasts, counter-screen, dose response (AID 2010); format: functional, cell-based;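 also: cells exposed to compound for about 90 hours before reading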
BJ [5] = assay: BJ-TERT fibroblast viability loss – cell-based, RAS-independent, luminescence, dose response (AID 1933); format: functional; conditions: Homo sapiens
Streptococcus = assay: GAS UMAA2166 growth inhibition – luminescence, BacTiterGlo, counter-screen for streptokinase expression inhibitor project, dose response (AID 1915); format: functional, organism-based;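 also: potency for reduction of bacterial viability or growth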
[6] = tested on: Streptococcus sp. 'group A'; assay: Streptococcus pyogenes SK(-)GAS viability under kanamycin – luminescence, BacTiterGlo, confirmation, counter-screen for streptokinase expression inhibitor project, dose response (AID 1900); format: functional, organism-based
[7] = Trypanosoma cruzi growth suppression in host cells – NIH3T3 host cells, beta-gal luminescence, confirmation (AID 2044); format: functional, cell-based;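 also: intracellular parasites grown in NIH/3T3 mouse fibroblasts as host cells; luminescent beta-galactosidase reporter signal from transgenic T. cruzi replicating inside host cells; inhibitors lower the luminescence signal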
BJ [8] = assay: cells; format: functional, cell-based; conditions: Homo sapiens
[9] = biological target: T2, Polyadenylate-binding protein 1 (Homo sapiens, UniProt P11940); assay: MLLE domain peptide-binding blockers, IC50 – biochemical, fluorescence polarization, FITC-PAM2 peptide, dose response (AID 602259); format: functional; conditions: read-out: IC50_Mean
[10] = biological target: T2, Polyadenylate-binding protein 1; assay: MLLE binding blockers, Cy5 peptide tracer – biochemical, fluorescence polarization, Cy5-PAM2 peptide, secondary, miRNA deadenylation inhibitor project, dose response (AID 602260); format: functional; conditions: read-out: IC50_Mean
[11] = intracellular Trypanosoma cruzi inhibitors in host cells – cell-based, plate reader, cherry-pick samples, set 3, dose response (AID 651818); format: functional;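 also: compounds incubated with infected cells for about four days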
[12] = non-specific 3'UTR reporter inhibition in Clone20-Shn3RL – cell-based, Renilla luciferase, cherry-picked, counter-screen for Shn3 inhibitor project, dose response (AID 624133); format: functional
[13] = viability of uninfected HEp-2 cells – cell-based, HTS, cytotoxicity control for RSV inhibitor project, dose response (AID 2410); format: functional; conditions: human respiratory syncytial virus
[14] = biological target: T3, Histone-lysine N-methyltransferase NSD2 (Homo sapiens, UniProt O96028); format: biochemical
T3 sequence (O96028 whole entry): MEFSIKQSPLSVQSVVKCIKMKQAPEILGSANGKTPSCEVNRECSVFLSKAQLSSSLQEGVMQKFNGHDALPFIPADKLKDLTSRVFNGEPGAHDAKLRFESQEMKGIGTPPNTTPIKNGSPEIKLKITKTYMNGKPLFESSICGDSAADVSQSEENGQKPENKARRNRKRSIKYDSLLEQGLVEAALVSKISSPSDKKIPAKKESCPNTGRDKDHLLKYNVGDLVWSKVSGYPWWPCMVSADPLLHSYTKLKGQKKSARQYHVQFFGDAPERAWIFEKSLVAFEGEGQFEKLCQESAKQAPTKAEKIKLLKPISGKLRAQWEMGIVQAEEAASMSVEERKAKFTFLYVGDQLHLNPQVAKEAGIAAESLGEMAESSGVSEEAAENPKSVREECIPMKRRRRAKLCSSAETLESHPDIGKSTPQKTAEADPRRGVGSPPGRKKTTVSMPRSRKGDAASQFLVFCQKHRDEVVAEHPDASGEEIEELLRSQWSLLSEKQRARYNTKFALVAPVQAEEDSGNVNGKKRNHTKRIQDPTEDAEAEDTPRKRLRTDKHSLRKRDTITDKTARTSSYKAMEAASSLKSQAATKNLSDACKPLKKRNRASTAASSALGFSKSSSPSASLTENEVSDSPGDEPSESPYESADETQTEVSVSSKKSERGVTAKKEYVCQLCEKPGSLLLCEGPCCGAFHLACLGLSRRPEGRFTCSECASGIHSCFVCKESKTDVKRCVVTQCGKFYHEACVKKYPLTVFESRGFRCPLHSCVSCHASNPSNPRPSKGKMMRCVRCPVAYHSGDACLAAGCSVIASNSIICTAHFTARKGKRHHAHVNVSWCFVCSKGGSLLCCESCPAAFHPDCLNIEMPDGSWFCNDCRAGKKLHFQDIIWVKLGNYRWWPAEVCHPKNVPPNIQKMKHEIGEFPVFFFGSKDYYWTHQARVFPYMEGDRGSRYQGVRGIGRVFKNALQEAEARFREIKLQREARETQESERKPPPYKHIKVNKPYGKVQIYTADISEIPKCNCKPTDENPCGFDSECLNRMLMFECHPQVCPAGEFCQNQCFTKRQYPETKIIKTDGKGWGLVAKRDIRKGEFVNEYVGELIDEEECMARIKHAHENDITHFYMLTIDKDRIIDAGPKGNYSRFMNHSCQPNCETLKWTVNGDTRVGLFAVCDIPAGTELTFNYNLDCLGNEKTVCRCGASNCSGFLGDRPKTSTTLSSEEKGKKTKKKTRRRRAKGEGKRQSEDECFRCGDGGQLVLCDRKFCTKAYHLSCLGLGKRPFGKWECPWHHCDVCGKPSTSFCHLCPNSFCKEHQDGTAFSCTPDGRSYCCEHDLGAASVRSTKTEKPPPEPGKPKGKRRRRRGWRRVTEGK

Genome polyprotein = Genome polyprotein (dengue virus type 2, UniProt P29990); assay: flavivirus cap methylation enzyme inhibition – biochemical, confirmation dose response, primary screen (AID 588689); format: functional
Chain of Genome polyprotein (P29990 2492-3391 limits assumed): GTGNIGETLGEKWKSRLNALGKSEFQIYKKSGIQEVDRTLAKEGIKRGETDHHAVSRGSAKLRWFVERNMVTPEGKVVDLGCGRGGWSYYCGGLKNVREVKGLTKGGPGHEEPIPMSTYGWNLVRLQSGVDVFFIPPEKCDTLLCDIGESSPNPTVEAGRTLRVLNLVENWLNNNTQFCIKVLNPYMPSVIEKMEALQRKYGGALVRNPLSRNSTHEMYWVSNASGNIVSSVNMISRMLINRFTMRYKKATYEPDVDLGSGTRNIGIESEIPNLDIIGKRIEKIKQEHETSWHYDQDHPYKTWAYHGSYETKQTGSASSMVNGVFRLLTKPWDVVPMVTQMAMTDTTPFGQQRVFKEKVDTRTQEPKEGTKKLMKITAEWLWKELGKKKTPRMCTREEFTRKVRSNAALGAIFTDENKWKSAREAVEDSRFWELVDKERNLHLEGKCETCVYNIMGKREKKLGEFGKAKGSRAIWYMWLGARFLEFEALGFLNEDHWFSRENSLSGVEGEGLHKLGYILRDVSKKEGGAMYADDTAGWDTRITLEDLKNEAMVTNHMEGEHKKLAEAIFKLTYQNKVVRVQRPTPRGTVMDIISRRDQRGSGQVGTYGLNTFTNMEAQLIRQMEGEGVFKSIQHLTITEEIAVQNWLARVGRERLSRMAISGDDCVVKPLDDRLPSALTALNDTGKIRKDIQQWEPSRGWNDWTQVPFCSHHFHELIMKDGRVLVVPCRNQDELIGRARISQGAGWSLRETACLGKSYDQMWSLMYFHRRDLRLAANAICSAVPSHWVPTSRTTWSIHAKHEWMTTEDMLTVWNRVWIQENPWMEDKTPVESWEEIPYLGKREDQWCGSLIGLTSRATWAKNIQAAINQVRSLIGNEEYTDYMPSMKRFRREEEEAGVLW

Chain of FAD-linked sulfhydryl oxidase ALR (P55789 whole entry): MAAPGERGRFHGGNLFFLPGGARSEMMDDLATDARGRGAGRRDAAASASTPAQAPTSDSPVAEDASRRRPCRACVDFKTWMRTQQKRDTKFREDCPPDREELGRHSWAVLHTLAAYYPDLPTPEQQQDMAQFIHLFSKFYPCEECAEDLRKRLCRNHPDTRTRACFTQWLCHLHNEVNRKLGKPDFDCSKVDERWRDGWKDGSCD
T2 sequence (P11940 whole entry, the tested form may be a part): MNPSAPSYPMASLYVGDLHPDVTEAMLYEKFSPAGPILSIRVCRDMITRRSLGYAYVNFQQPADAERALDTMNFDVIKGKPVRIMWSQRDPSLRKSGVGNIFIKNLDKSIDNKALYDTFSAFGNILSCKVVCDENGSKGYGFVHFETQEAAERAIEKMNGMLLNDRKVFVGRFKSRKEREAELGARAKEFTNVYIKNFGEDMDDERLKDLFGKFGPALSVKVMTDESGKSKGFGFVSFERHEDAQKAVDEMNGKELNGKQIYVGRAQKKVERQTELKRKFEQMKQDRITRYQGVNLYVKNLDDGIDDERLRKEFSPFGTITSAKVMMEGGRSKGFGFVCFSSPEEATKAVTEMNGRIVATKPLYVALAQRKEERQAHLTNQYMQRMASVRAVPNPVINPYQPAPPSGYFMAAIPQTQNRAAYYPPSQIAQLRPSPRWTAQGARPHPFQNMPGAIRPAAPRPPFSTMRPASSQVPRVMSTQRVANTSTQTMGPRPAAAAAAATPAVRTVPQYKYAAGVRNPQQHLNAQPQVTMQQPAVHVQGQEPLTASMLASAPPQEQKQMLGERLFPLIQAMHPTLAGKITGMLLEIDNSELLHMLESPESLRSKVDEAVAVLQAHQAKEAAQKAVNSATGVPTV

With `CSCC[C@H](NC(=O)N1CCn2c1nc1ccccc12)C(=O)N1CCCCC1` as the compound, how does the AC50 [1] read?
The AC50 was 4.31 µM (active).

Which AC50 [1] does the source give for `CC1CN(C2CCCCC2)c2nc3c(c(=O)[nH]c(=O)n3C)n2C1` (stereo not drawn) here?
Its AC50 is 1.81 µM (active).

For `COC(=O)c1c(NC(=O)COc2ccc(Cl)cc2)sc2c1CC(C)(C)NC2(C)C`, which EC50 (BJ [2]) is on record?
Its EC50 is 5.75 µM (inconclusive).

And the EC50 (Streptokinase A)?
The EC50 was 23.7 µM (active).

And the EC50 [3]?
The EC50 was 5.85 µM (active).

And the EC50 [4]?
The EC50 was 10.4 µM (active).

What about the EC50 (BJ [5]) of the same compound?
The EC50 was 4.44 µM (active).

And the EC50 (Streptococcus)?
The EC50 was > 150 µM (not active).

What about the EC50 [6] of the same compound?
Its EC50 is 11.6 µM (active).

What about the EC50 [7] of the same compound?
Its EC50 is 1.54 µM (active).

And the EC50 (BJ [8])?
The EC50 was 11.7 µM (active).

Which AC50 [1] does the source give for `C/C(=N\NC(=O)CN1CCN(S(=O)(=O)c2ccc(C)cc2)CC1)c1ccc(O)cc1` here?
Its AC50 is 2.92 µM (active).

Which IC50 [9] does the source give for `CCC(c1nnnn1Cc1ccc(F)cc1)N(CCCO)Cc1cc2cc3c(cc2nc1O)OCO3` (stereo not drawn) here?
Its IC50 is > 66 µM (inactive).

What about the IC50 [10] of the same compound?
Its IC50 is > 66 µM (inactive).

With `COc1ccc(CN(C)C[C@H]2Oc3ccc(NC(=O)C4CCCCC4)cc3CC(=O)N([C@@H](C)CO)C[C@@H]2C)cc1` as the compound, how does the AC50 [11] read?
The AC50 was 1.2 µM (active).

With `Cn1cccc1/C=N/n1c(S)nnc1-c1ccc(Cl)cc1Cl` as the compound, how does the AC50 [1] read?
Its AC50 is 1.07 µM (active).

For `O=C(C1CCCC1)N1CCN=C1SCc1cccc([N+](=O)[O-])c1`, which AC50 [1] is on record?
The AC50 was 0.032 µM (active).

For `Nc1cc(O)nc(SCC(=O)Nc2cccc([N+](=O)[O-])c2)n1`, which AC50 [12] is on record?
Its AC50 is 27.7 µM (active).

For `O=C1Nn2c(nc3c(c2=O)CCCC3)/C1=N/Nc1cccc(C(F)(F)F)c1`, which CC50 [13] is on record?
Its CC50 is 25.1 µM (active).

What about the AC50 [14] of the same compound?
The AC50 was > 20 µM (inactive).

What about the IC50 (Genome polyprotein) of the same compound?
Its IC50 is 28.7 µM (active).

With `C[C@@H]1CN([C@@H](C)CO)C(=O)Cc2cc(NC(=O)Nc3ccc4c(c3)OCO4)ccc2O[C@@H]1CN(C)Cc1ccc(Oc2ccccc2)cc1` as the compound, how does the AC50 [11] read?
Its AC50 is 2.77 µM (active).

For `COc1ccc(/C=C2/SC(=S)N(NS(=O)(=O)c3ccc(C)cc3)C2=O)cc1`, which IC50 (Genome polyprotein) is on record?
The IC50 was 56.9 µM (active).
